In patent US7217548B2, “N-acetylglucosaminlytransferase and polynucleotide encoding the same” (National Institute of Advanced Industrial Science and …, priority 2000, dated 2007):
Entries after “also recorded” stand apart in the source; their conditions may differ. Where two headings read alike, the source gives them in different places. Peptide text beside a SMILES is read from it. * marks the point of attachment. αMan = OC[C@H]1O[C@H](*)[C@@H](O)[C@@H](O)[C@@H]1O

Key:
[1] = molecular target: T1, OMGnT derived from a newborn rat brain (Rattus norvegicus, UniProt Q5XIN7); assay: Divalent cation requirement for OMGnT activity; assay type: biochemical; conditions: for effect on OMGnT activity relative to Mn2+: 10 mM for each divalent cation; for Relative activity of OMGnT (%): each additive 10 mM, activity with 10 mM MnCl2 taken as 100%
T1 construct: from tissue; host or cells: newborn rat brain
Procedure: *OMGnT activity was determined by adding each of the metal ions (10 mM) to a OMGnT sample. The figures in the Table are expressed in percent, taking the activity when 10 mM MnCl2 is added as 100%.

His-Xpress-sOMGnT(L) = molecular target: T2, His-Xpress-sOMGnT(L) (Homo sapiens, UniProt Q8WZA1, M623V); assay: Substrate specificity and kinetic parameters of solubilized human OMGnT enzyme (L); assay type: biochemical; conditions: for OMGnT relative activity (%) His-Xpress-sOMGnT(L): as sugar receptor, activity with Man-peptide regarded as 100%
T2 construct: 595 amino acids from 66: Ser thereof (66: Ser to 660: Thr), respectively; Ig kappa chain secretory signal (N); made in house; host or cells: HEK293T (transient, secreted into serum-free medium)
Procedure: (§1) […] […] The reaction mixture was then filtered with a filter Ultrafree-MC (Millipore) having a pore size of 0.22 μm to remove solids, and analyzed by Wakopak 5C18-200 column (4.6×250 mm, Wako Pure Chemical Industries, Ltd.). The separation was carried out using concentration gradient with Solution A and Solution B at a flow rate of 1.0 ml/min. […] Peptide detection was carried out at 214 nm, and the radioactivity of each fraction was assayed using a liquid scintillation counter.
(§2) The activity of GnT-1 was assayed with a method by Yoshida et al. [Yoshida, S., Suzuki, M., Yamano, S., Takeuchi, M., Ikenaga, H., Kioka, N., Sakai, H., and Komano, T., Glycobiology, (1999), 9, 53–58] as described below. A 20 μl reaction solution was prepared by adding an enzyme source thereto so as to have a final concentration of 100 mM MES (pH 6.0), 20 mM MnCl2, 5 μM Manα1–6(Manα1–3)Manα1–6(Manα1–3)Manβ1–4GlcNAcβ1–4GlcNAc-PA(M5GN2-PA; Takara Shuzo, PA-Sugar Chain 017), 1 mM UDP-GlcNAc, 100 mM GlcNAc, 5 mM AMP, 1% Triton X-100, and 0.2% BSA. The reaction solution was incubated at 37° C. for 1 hour, and the reaction was terminated in boiling water. Thereafter, the reaction solution was analyzed by a reverse phase HPLC (Cosmosil 5C18-AR column) available from Nacalai Tesque.
(§3) When Manα1–6(Manα1–3)Manβ1–4GlcNAcβ1–4GlcNAc-PA (M3GN2-PA; Takara Shuzo, PA-Sugar Chain 016) was used as a sugar receptor, the same method was employed for analysis.

His-Xpress-sOMGnT(S) = molecular target: T3, His-Xpress-sOMGnT(S) (Homo sapiens, UniProt Q8WZA1, M623V); assay: Substrate specificity and kinetic parameters of solubilized human OMGnT enzyme (S); assay type: biochemical; conditions: for OMGnT relative activity (%) His-Xpress-sOMGnT(S): as sugar receptor, activity with Man-peptide regarded as 100%
T3 construct: Ig kappa chain secretory signal (N); made in house; host or cells: HEK293T (transient, secreted into serum-free medium)
T3 sequence (Q8WZA1 247-660 M623V): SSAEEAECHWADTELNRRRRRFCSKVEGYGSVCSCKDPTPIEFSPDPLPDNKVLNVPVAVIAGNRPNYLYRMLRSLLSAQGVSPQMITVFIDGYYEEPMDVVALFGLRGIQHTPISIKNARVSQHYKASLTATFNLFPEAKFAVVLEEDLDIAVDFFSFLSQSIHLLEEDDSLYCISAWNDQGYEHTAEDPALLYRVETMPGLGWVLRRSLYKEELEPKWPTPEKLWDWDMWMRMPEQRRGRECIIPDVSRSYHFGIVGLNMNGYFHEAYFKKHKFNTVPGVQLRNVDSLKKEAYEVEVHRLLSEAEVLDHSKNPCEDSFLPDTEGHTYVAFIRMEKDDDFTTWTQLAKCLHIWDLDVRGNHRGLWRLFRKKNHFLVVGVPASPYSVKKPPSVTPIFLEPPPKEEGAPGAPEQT
Procedure: as §1, §2, §3

OMGnT [2] = assay: Substrate specificity of OMGnT expressed in animal cells (summary of properties); assay type: biochemical, human; conditions: reactivity toward mannosylnanopeptide regarded as 100%
Description: The biochemical properties of the OMGnT: an enzyme protein massively expressed in animal cells as described above are as follows.

GnT-I = molecular target: T4, GnT-I (Homo sapiens, UniProt P26572); assay: GnT-I activity assay of solubilized enzymes; assay type: biochemical; conditions: method of Reference Example 2
T4 construct: Ig kappa chain secretory signal (N); made in house; host or cells: HEK293T (transient, secreted into serum-free medium)
T4 sequence (P26572 39-445 limits assumed): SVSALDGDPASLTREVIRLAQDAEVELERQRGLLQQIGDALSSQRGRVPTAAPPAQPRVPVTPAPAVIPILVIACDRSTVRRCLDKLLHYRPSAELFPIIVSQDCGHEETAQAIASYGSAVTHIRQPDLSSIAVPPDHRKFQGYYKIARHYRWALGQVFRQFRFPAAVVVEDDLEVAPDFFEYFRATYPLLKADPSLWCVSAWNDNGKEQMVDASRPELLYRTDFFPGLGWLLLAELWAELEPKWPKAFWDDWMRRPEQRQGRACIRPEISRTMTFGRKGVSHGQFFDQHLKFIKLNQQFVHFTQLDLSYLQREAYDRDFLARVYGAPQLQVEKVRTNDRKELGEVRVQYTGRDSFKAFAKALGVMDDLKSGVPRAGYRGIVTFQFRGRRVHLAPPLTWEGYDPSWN
Procedure: as §2, §3

OMGnT [3] = assay: OMGnT activity in serum-free medium of HEK293T cells expressing solubilized enzymes; assay type: biochemical, human; conditions: serum-free medium of HEK293T transfectants
Procedure: (§4) The enzyme solution was added to 140 mM MES [2-(N-morpholino) ethanesulfonic acid] buffer (pH 7.0) containing 0.4 mM Man-peptide, 0.2 mM UDP-[^3H]GlcNAc (up to 228,000 dpm/nmol), 10 mM MnCl2, 5 mM AMP, 200 mM GlcNAc, 2%(w/v) Triton X-100, 10% glycerol, 2 μg/ml antipain, 2 μg/ml chymostatin, 3 μg/ml pepstatin A, 2 μg/ml leupeptin, 1 mM benzamidine-HCl, and 1 mM PMSF (phenylmethylsulfonyl fluoride) to prepare 50 μl of reaction solution. After the reaction at 37° C. for 3 hours, the reaction was terminated by 3 minutes of boiling. The reaction mixture was then filtered with a filter Ultrafree-MC (Millipore) having a pore size of 0.22 μm to remove solids, and analyzed by Wakopak 5C18-200 column (4.6×250 mm, Wako Pure Chemical Industries, Ltd.). The separation was carried out using concentration gradient with Solution A and Solution B at a flow rate of 1.0 ml/min. […] Peptide detection was carried out at 214 nm, and the radioactivity of each fraction was assayed using a liquid scintillation counter.
Each secretory expression plasmid was transiently expressed in a HEK293T cell derived from human embryonic kidney. Usually, HEK293T cells were cultured in D-MEM (Gibco, #11995-065) containing 10% Fetal Calf Serum (Hyclone), 10 mM MEM Non-Essential Amino Acids solution (Gibco), 2 mM Glutamine (Gibco), and 100 units/ml Penicillin/100 μg/ml Streptomycin (Gibco). […]

OMGnT [4] = molecular target: T5, OMGnT (Homo sapiens, UniProt Q8WZA1, M623V); assay: OMGnT activity of microsomal fractions of HEK293T cells transfected with full-length human OMGnT plasmid; assay type: biochemical
T5 construct: a cDNA of approximately 2.0 kb encoding the full length of human OMGnT is inserted; expressed in transfected cells; host or cells: HEK293T
Procedure: as §4
The mixture was centrifuged for 10 minutes at 900×g, and then the obtained supernatant was centrifuged for 1 hour at 100,000×g, thereby obtaining a microsomal fraction as a precipitate. In the case of preparing solubilized enzyme, the precipitate was suspended in 140 mM MES buffer (pH 7.0) (referred to as solubilization buffer) containing 5 mM AMP, 200 mM GlcNAc, 2%(w/v) Triton X-100, 10% glycerol, 2 μg/ml antipain, 2 μg/ml chymostatin, 3 μg/ml pepstatin A, 2 μg/ml leupeptin, 1 mM benzamidine-HCl, and 1 mM PMSF(phenylmethylsulfonyl fluoride) and sonicated. Thereafter, the resultant was centrifuged for 1 hour at 100,000×g and the obtained supernatant was used.
The expression plasmid was transiently expressed in an HEK293T cell in the same manner as described in Example 3. 15 μg of plasmid was transfected to 50–70% confluent cells in a 10 cm petri dish. After overnight cultivation, the medium was changed. After a further 48-hour cultivation, cells were collected.
A microsomal fraction was prepared from cells by the method described in Example 2, and OMGnT activity of a soluble fraction and an insoluble fraction were assayed by the method described in Example 1.

T2 sequence (Q8WZA1 66-660 M623V): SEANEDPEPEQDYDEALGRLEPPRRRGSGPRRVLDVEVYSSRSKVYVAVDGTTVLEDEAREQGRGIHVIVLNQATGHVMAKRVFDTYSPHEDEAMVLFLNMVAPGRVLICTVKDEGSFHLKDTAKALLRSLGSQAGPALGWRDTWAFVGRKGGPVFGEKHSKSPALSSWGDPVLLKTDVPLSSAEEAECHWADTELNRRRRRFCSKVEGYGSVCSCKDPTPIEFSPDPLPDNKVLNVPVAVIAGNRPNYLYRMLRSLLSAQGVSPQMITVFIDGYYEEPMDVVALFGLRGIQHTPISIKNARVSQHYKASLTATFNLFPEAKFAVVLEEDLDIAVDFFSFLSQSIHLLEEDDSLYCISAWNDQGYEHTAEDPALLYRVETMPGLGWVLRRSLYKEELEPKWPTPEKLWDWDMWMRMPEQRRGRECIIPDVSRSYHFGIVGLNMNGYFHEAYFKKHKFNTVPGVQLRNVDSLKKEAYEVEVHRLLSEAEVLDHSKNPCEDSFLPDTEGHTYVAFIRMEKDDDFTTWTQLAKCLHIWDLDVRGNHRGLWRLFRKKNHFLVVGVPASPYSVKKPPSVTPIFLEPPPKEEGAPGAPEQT
T1 sequence (Q5XIN7 whole entry): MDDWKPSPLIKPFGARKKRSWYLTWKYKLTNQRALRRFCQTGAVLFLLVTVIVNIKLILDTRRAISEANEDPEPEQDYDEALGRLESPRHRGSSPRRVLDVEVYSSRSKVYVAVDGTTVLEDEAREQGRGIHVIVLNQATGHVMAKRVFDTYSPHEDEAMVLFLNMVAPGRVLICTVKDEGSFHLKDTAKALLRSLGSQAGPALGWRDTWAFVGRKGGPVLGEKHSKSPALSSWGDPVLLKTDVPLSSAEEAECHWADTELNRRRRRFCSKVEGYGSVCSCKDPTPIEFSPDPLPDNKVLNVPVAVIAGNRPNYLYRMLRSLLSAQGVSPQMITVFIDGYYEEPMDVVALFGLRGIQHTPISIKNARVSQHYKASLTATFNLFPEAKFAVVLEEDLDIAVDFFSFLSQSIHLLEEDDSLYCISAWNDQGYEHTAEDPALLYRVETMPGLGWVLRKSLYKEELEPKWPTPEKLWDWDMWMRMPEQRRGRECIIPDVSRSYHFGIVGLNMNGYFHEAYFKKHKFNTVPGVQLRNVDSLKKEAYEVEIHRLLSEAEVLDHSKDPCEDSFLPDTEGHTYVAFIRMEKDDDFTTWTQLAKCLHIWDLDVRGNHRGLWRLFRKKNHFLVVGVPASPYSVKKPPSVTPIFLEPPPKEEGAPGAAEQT
T5 sequence (Q8WZA1 whole entry M623V): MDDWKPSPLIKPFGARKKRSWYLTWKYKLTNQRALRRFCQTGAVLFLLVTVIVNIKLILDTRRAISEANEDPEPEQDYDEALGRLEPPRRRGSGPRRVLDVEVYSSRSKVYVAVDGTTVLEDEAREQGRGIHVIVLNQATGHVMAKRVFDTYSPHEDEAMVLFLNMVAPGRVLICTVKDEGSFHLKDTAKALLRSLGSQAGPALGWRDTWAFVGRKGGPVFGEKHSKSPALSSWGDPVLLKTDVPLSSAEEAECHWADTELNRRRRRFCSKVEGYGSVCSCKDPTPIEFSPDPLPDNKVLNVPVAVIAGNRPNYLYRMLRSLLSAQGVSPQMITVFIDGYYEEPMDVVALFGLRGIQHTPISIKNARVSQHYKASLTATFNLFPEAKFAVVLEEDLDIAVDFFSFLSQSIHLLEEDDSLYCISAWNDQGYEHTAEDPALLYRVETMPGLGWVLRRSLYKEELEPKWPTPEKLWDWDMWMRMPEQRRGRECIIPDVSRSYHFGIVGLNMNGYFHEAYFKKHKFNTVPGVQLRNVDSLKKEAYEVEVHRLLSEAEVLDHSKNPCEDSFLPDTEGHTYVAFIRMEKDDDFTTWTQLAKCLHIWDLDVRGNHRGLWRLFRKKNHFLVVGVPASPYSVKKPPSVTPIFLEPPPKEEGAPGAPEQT

With [Ca+2].[Cl-].[Cl-] [CaCl2] the “effect on OMGnT activity (in words)” value [1] was “weak effect”, the “effect on OMGnT activity relative to Mn2+” value [1] was “approximately 15%” and the “Relative activity of OMGnT (%)” value [1] was 15%.
CC(=O)N[C@@H](C)C(=O)N[C@@H](C)C(=O)N1CCC[C@H]1C(=O)N[C@H](C(=O)N1CCC[C@H]1C(=O)N[C@H](C(=O)N[C@@H](C)C(=O)N[C@@H](C)C(=O)N1CCC[C@H]1C(N)=O)C(C)C)[C@@H](C)O[C@H]1O[C@H](CO)[C@@H](O)[C@H](O)[C@@H]1O [Man-peptide, Ac-Ala-Ala-Pro-Thr(Man)-Pro-Val-Ala-Ala-Pro-NH2] (Ac-AAPT(αMan)PVAAP-NH2) was tested, and the “OMGnT relative activity (%) His-Xpress-sOMGnT(L)” value (His-Xpress-sOMGnT(L)) was 100% and the “OMGnT relative activity (%) His-Xpress-sOMGnT(S)” value (His-Xpress-sOMGnT(S)) was 100%.
For [Cl-].[Cl-].[Mg+2] [MgCl2], the “effect on OMGnT activity relative to Mn2+” value [1] was “approximately 40%” and the “Relative activity of OMGnT (%)” value [1] was 39%.
In the case of [Cl][Mn][Cl] [MnCl2], the “concentration range at which the effect on OMGnT activity is the greatest” value [1] was 1 to 10 mM, the “Relative activity of OMGnT (%)” value [1] was 100% and the “effect on OMGnT activity (in words)” value ([1]; listed as Mn^2+) was “greatest effect; also recorded: maximum effect”.
CC(=O)N[C@H]1[C@@H](OP(=O)(O)OP(=O)(O)OC[C@H]2O[C@@H](n3ccc(=O)[nH]c3=O)[C@H](O)[C@@H]2O)O[C@H](CO)[C@@H](O)[C@@H]1O [UDP-GlcNAc] showed a Km (His-Xpress-sOMGnT(L); 125 mM MOPS pH7.3, 0.4 mM Man-peptide, 7.5 mM MnCl2, 37° C., 2 hours, read-out: apparent Km value of His-Xpress-sOMGnT(L) toward UDP-GlcNAc) of 730 µM and a Km (His-Xpress-sOMGnT(S); 125 mM MOPS pH7.3, 0.4 mM Man-peptide, 7.5 mM MnCl2, 37° C., 2 hours, read-out: apparent Km value of His-Xpress-sOMGnT(S) toward UDP-GlcNAc) of 570 µM.
For O=[N+]([O-])c1ccc(O[C@H]2O[C@H](CO)[C@@H](O)[C@H](O)[C@@H]2O)cc1 [p-nitrophenyl Man, p-nitrophenyl mannose], the “OMGnT relative activity (%) His-Xpress-sOMGnT(L)” value (His-Xpress-sOMGnT(L)) was 0%, the “reactivity of the enzyme toward sugar receptor” value (OMGnT [2]) was 0% and the “OMGnT relative activity (%) His-Xpress-sOMGnT(S)” value (His-Xpress-sOMGnT(S)) was 0%.
For “His-Xpress-sOMGnT(L): solubilized human OMGnT, 595 amino acids 66:Ser to 660:Thr, secreted from HEK293T; plasmid named in Table 3”, the “GnT-I activity (in words)” value (GnT-I) was “did not exhibit activity at all”, the OMGnT activity (OMGnT [3]) was 15 pmol/hr/mg protein and the “OMGnT activity (in words)” value (OMGnT [3]) was “significantly high OMGnT activity”.
In the case of “Manα1–6(Manα1–3)Manα1–6(Manα1–3)Manβ1–4GlcNAcβ1–4GlcNAc-PA [M5GN2-PA]”, the “OMGnT relative activity (%) His-Xpress-sOMGnT(L)” value (His-Xpress-sOMGnT(L)) was 0% and the “OMGnT relative activity (%) His-Xpress-sOMGnT(S)” value (His-Xpress-sOMGnT(S)) was 0%.
“Manα1–6(Manα1–3)Manβ1–4GlcNAcβ1–4GlcNAc-PA [M3GN2-PA]” was tested, and the “OMGnT relative activity (%) His-Xpress-sOMGnT(L)” value (His-Xpress-sOMGnT(L)) was 0% and the “OMGnT relative activity (%) His-Xpress-sOMGnT(S)” value (His-Xpress-sOMGnT(S)) was 0%.
For “OMGnT/pcDNA3.1zeo: expression plasmid for full-length human OMGnT (SEQ ID NO: 2), expressed in HEK293T; microsomal fractions assayed”, the “OMGnT activity, times higher than control (no plasmid), insoluble fraction” value (OMGnT [4]; insoluble fraction) was ~140 times, the “OMGnT activity, Insoluble fraction” value (OMGnT [4]; insoluble fraction of microsomal fraction, HEK293T) was 243.9 pmol/hr/mg protein and the “OMGnT activity, times higher than control (no plasmid), soluble fraction” value (OMGnT [4]; soluble fraction) was “about 120 times”. For the same molecule, the “OMGnT activity, Soluble fraction” value (OMGnT [4]; soluble fraction of microsomal fraction, HEK293T) was 182.7 pmol/hr/mg protein and the “OMGnT activity, Total” value (OMGnT [4]; soluble plus insoluble fraction) was 426.6 pmol/hr/mg protein.
